We go through 13 molecules from PubChem BioAssay (NCI).

Test systems include A498 renal; ACHN renal; HCT-116 colon; HOP-62 NSCLC; K-562 leukemia; KM12 colon; MALME-3M melanoma; NCI-H460 lung; NCI-H522 lung; OVCAR-3 ovarian.
Holding throughout (assay): NCI-60 cell line screen, 48 h

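The compound was tested at five concentrations on cells cultured in 96-well plates, with a 48-hour exposure period. The concentration for 50% growth inhibition is given as GI50. At the TGI there is no net growth.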

Turning to `Cc1cc(S(=O)(=O)/N=C(/NN)Nc2ccc(Cl)cc2)c(S)cc1Cl`, the TGI was 35.4 µM in the assay on A498 renal; 20 µM in the assay with ACHN renal; 20 µM in the assay on HCT-116 colon; 28 µM in the assay with HOP-62 NSCLC; over 100 µM in the assay on K-562 leukemia; 19.3 µM with KM12 colon. Also, the TGI in the assay with MALME-3M melanoma was determined as 37.1 µM; in the assay with NCI-H460 lung it was 17.1 µM; in the assay on NCI-H522 lung, 42.9 µM; in the assay with OVCAR-3 ovarian, 82.2 µM.
`O=c1[nH]nc(Cc2ccc(Cl)cc2)n1/N=C/c1ccc([N+](=O)[O-])o1`: the TGI in the assay with A498 renal is 14.1 µM; in the assay with ACHN renal it was 11.4 µM; with HCT-116 colon it was 3.2 µM; in the assay on HOP-62 NSCLC it was 24.8 µM; in the assay with K-562 leukemia it was over 31 µM; in the assay with KM12 colon, 6.59 µM. Besides, the TGI in the assay on MALME-3M melanoma was 3.31 µM; in the assay with NCI-H460 lung, over 36.2 µM; in the assay on NCI-H522 lung it was 4.18 µM; in the assay with OVCAR-3 ovarian, 25.9 µM.
For `COc1ccccc1C1C(C#N)=C(N)Oc2n[nH]c(C)c21` (stereo not given), the GI50 in the assay with A498 renal was over 100 µM; in the assay on ACHN renal it was over 100 µM; in the assay on HCT-116 colon, 90.7 µM; in the assay with HOP-62 NSCLC it was over 100 µM; in the assay with K-562 leukemia, over 100 µM; with KM12 colon, over 100 µM. Also, the GI50 in the assay on MALME-3M melanoma is over 100 µM; with NCI-H460 lung it was over 100 µM; in the assay with NCI-H522 lung, 56.3 µM; in the assay with OVCAR-3 ovarian, over 100 µM. The TGI with A498 renal, in the assay with ACHN renal, with HCT-116 colon, in the assay with HOP-62 NSCLC, in the assay on K-562 leukemia and in the assay on KM12 colon was over 100 µM throughout. Besides, the TGI with MALME-3M melanoma, in the assay on NCI-H460 lung, in the assay on NCI-H522 lung and in the assay with OVCAR-3 ovarian was over 100 µM in each case.
Take `N#Cc1c(N)nc2c3c1NC(=O)C(C(N)=O)C3c1ccccc1O2` (stereo not given): the TGI with A498 renal, in the assay on ACHN renal, with HCT-116 colon, in the assay on HOP-62 NSCLC, in the assay on K-562 leukemia and with KM12 colon was over 100 µM in each case. Moreover, the TGI was over 100 µM in the assay on MALME-3M melanoma, over 100 µM in the assay with NCI-H460 lung, 70.6 µM in the assay on NCI-H522 lung and over 100 µM in the assay with OVCAR-3 ovarian.
Take `O=[Se](O)O`: the TGI is over 100 µM in the assay on A498 renal; 76.6 µM in the assay on ACHN renal; 15.6 µM in the assay with HCT-116 colon; 1.95 µM in the assay with HOP-62 NSCLC; over 100 µM in the assay on K-562 leukemia; over 64.6 µM in the assay with KM12 colon. In addition, the TGI in the assay with MALME-3M melanoma is over 100 µM; with NCI-H460 lung, over 49.9 µM; with NCI-H522 lung it was 39 µM; in the assay on OVCAR-3 ovarian, 10.7 µM.
On to `OC(NN=C1CCCC1)(C(F)(F)Cl)C(F)(F)Cl`, for which the TGI in the assay with A498 renal, in the assay with ACHN renal, with HCT-116 colon, with HOP-62 NSCLC, in the assay on K-562 leukemia and in the assay with KM12 colon was over 10 µM in each case. Further, the TGI with MALME-3M melanoma, with NCI-H460 lung, with NCI-H522 lung and in the assay on OVCAR-3 ovarian was over 10 µM each time.
`CCOC(=O)C1=C(O)c2ccc(C)cc2C(=O)C1=O`: the TGI in the assay with A498 renal, with ACHN renal, in the assay with HCT-116 colon, in the assay on HOP-62 NSCLC, with K-562 leukemia and in the assay with KM12 colon was over 100 µM each time. Also, the TGI in the assay with MALME-3M melanoma, with NCI-H460 lung, with NCI-H522 lung and in the assay on OVCAR-3 ovarian was over 100 µM throughout.
Take `Cc1ccccc1NC(=O)CC(=O)NNC(Sc1ccccc1)c1cc(N=Nc2ccc(Br)cc2)ccc1O` (stereo not given): the TGI in the assay with A498 renal is 7.96 µM; with ACHN renal it was over 10 µM; in the assay with HCT-116 colon, 1.19 µM; in the assay on HOP-62 NSCLC, over 10 µM; in the assay with K-562 leukemia, 7.56 µM; with KM12 colon it was over 10 µM. The TGI in the assay with MALME-3M melanoma is over 10 µM; in the assay with NCI-H460 lung, over 10 µM; in the assay on NCI-H522 lung, over 10 µM; with OVCAR-3 ovarian, 4.91 µM.
In the case of `CC1(C)C=C(/C=N/Nc2ccccc2)C(C#N)=C(O)C1(C#N)C#N`, the TGI in the assay with A498 renal, in the assay with ACHN renal, with HCT-116 colon, in the assay on HOP-62 NSCLC, with K-562 leukemia and with KM12 colon was over 100 µM each time. Further, the TGI with MALME-3M melanoma, with NCI-H460 lung, with NCI-H522 lung and with OVCAR-3 ovarian was over 100 µM in each case.
Consider `CCOC1=C(c2ccccc2)N2CCCCC2O1` (stereo not given), for which the TGI was 32.2 µM with A498 renal; over 100 µM with ACHN renal; 15.2 µM in the assay on HCT-116 colon; 17.6 µM in the assay with HOP-62 NSCLC; over 47.5 µM with K-562 leukemia; 14 µM in the assay on KM12 colon. For the same molecule, the TGI in the assay with MALME-3M melanoma is 20.7 µM; in the assay on NCI-H460 lung it was 15 µM; in the assay with NCI-H522 lung, 13.4 µM; in the assay on OVCAR-3 ovarian, over 44.5 µM.
As for `CC1(C)O[C@@H](C[C@]2(C#N)C[C@H](CCl)OC(C)(C)O2)C[C@@H](C#N)O1`, the TGI in the assay with A498 renal, with ACHN renal, in the assay on HCT-116 colon, with HOP-62 NSCLC, with K-562 leukemia and in the assay with KM12 colon was over 100 µM each time. Further, the TGI in the assay on MALME-3M melanoma, with NCI-H460 lung, in the assay on NCI-H522 lung and with OVCAR-3 ovarian was over 100 µM in each case.
As to `COc1nc(C#CC2CCCCC2)nc(OC)n1`, the TGI in the assay on A498 renal was 37.2 µM; in the assay on ACHN renal it was 17.5 µM; with HCT-116 colon it was 10.2 µM; with HOP-62 NSCLC it was 18.4 µM; in the assay with K-562 leukemia, 28.4 µM; in the assay on KM12 colon, 17.9 µM. Besides, the TGI with MALME-3M melanoma was 6.49 µM; in the assay on NCI-H460 lung, 26.6 µM; in the assay with NCI-H522 lung, 6.33 µM; in the assay on OVCAR-3 ovarian, 8.97 µM.
Regarding `COc1cccc(C2c3cc4c(cc3OC(Nc3ccccc3)C2C)OCO4)c1O` (stereo not given), the TGI in the assay on A498 renal was 23 µM; in the assay with ACHN renal, over 68.3 µM; with HCT-116 colon it was 36 µM; with HOP-62 NSCLC, 36.9 µM; in the assay on K-562 leukemia, 15 µM; in the assay with KM12 colon it was 24.8 µM. For the same molecule, the TGI was 35.3 µM in the assay with MALME-3M melanoma, 26.4 µM in the assay on NCI-H460 lung, 20.6 µM in the assay with NCI-H522 lung and 29.9 µM in the assay with OVCAR-3 ovarian.
